Target: T1, human mGluR2 receptor (Homo sapiens, UniProt Q14416)
T1 construct: expressed in transfected cells; host or cells: CHO cells (membranes)
Assay: [35S]GTPγS binding assay (PAM)
Format: biochemical
Details: in presence of glutamate at predetermined EC20; membranes from CHO cells transfected with human mGluR2
Method: [^35S]GTPγS binding assay
The [^35S]GTPγS binding assay is a functional membrane-based assay used to study G-protein coupled receptor (GPCR) function whereby incorporation of a non-hydrolysable form of GTP, [^35S]GTPγS (guanosine 5′-triphosphate, labelled with […] ^35S), is measured.
CHO-cells were cultured to pre-confluence and stimulated with 5 mM butyrate for 24 h, prior to washing in PBS, and then collected by scraping in homogenisation buffer (50 mM Tris-HCl buffer, pH 7.4, 4° C.). Cell lysates were homogenized briefly using an ultra-turrax homogenizer. The homogenate was centrifuged at 16,000 RPM (Sorvall RC-5C plus rotor SS-34) for 10 minutes and the supernatant discarded. The pellet was resuspended in 5 mM Tris-HCl, pH 7.4 and centrifuged again (18,000 RPM, 20 min, 4° C.). The final pellet was resuspended in 50 mM Tris-HCl, pH 7.4 and stored at −80° C. in appropriate aliquots before use. Protein concentration was determined by the Bradford method (Bio-Rad, USA) with bovine serum albumin as standard.
Measurement of mGluR2 positive allosteric modulatory activity of test compounds was performed as follows. Test compounds and glutamate were diluted in assay buffer containing 10 mM HEPES acid, 10 mM HEPES salt, pH 7.4, 100 mM NaCl, 3 mM MgCl2 and 10 μM GDP. Human mGlu2 receptor-containing membranes were thawed on ice and diluted in assay buffer supplemented with 14 μg/ml saponin. Membranes were pre-incubated with compound alone or together with a predefined (˜EC20) concentration of glutamate (PAM assay) for 30 min at 30° C. After addition of [^35S]GTPγS (f.c. 0.1 nM) microplates were shaken briefly and further incubated to allow [^35S]GTPγS incorporation on activation (30 minutes, 30° C.). Final assay mixtures contained 7 μg of membrane protein in 10 mM HEPES acid, 10 mM HEPES salt, pH 7.4, 100 mM NaCl, 3 mM MgCl2, 10 μM GDP and 10 μg/ml saponin. Total reaction volume was […] Reactions were terminated by rapid filtration through Unifilter-96 GF/B filter plates (Packard, Meriden, Conn.) using a 96-well Packard filtermate harvester. Filters were washed 6 times with ice-cold 10 mM NaH2PO4/10 mM Na2HPO4, pH 7.4. Filters were then air-dried, and 40 μl of liquid scintillation cocktail (Microscint-O) was added to each well. Membrane-bound radioactivity was counted in a Microplate Scintillation and Luminescence Counter from Packard.
obtained in the presence of EC20 of mGluR2 agonist glutamate to determine positive allosteric modulation (PAM)—were generated using the Lexis software interface (developed at J&J). Data were calculated as % of the control glutamate response, defined as the maximal response that is generated upon addition of glutamate alone. Sigmoid concentration-response curves plotting these percentages versus the log concentration of the test compound were analyzed using non-linear regression analysis. The concentration producing half-maximal effect is then calculated as EC50.
All compounds were tested in presence of mGluR2 agonist, glutamate at a predetermined EC20 concentration, to determine positive allosteric modulation (GTPγS-PAM). pEC50 values were calculated from a concentration-response experiment of at least 10 concentrations.

T1 sequence (Q14416 19-872): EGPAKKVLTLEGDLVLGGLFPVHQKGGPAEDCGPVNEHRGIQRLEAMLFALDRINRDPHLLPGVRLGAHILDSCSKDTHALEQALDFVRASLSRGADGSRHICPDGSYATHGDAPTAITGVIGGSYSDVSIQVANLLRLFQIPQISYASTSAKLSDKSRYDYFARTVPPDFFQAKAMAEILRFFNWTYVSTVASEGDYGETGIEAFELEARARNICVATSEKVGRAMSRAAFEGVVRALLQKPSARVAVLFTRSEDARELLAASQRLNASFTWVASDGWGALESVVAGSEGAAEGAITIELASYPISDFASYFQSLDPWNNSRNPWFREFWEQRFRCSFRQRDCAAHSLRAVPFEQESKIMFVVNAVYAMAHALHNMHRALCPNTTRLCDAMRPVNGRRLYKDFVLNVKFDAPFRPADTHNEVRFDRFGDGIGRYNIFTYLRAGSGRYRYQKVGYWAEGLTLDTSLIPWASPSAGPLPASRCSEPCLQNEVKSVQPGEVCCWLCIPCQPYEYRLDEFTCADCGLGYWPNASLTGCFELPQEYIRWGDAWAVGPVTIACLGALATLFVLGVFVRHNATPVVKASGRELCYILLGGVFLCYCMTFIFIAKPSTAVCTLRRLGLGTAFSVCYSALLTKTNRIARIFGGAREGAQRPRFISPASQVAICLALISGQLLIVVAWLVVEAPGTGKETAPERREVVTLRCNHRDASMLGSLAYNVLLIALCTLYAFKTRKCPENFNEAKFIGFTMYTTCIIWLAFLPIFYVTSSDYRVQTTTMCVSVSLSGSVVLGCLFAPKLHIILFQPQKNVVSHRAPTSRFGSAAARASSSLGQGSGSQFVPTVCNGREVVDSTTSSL

Structure (SMILES)	GTPγS -hR2 PAM pEC50
Clc1c(-c2ccc(Oc3ccccc3)cc2)ccn2c(C3CCC3)nnc12 [Co. No. 17]	6.88
Fc1cc(-c2ccn3c(CC4CC4)nnc3c2Cl)ccc1NC1CC1 [Co. No. 25]	7.20
O[C@H]1CC[C@H](Nc2ccc(-c3ccn4c(CC(F)(F)F)nnc4c3Cl)cc2Cl)CC1 [Co. No. 29]	7.40
Cc1cc(Oc2ccc(-c3ccn4c(CC(F)(F)F)nnc4c3Cl)cc2Cl)ccn1 [Co. No. 40]	6.78
FC(F)(F)Cc1nnc2c(Cl)c(-c3ccc(NC4CCOCC4)c(Cl)c3)ccn12 [Co. No. 30]	6.66
Clc1c(-c2ccccc2)ccn2c(CN3CCOc4ccccc4C3)nnc12 [Co. No. 28]	6.05
FC(F)(F)C1CCN(Cc2ccc(-c3ccn4c(CC5CC5)nnc4c3Cl)cc2)CC1 [Co. No. 19]	6.13
CCOCc1nnc2c(Cl)c(-c3ccc(Oc4ccc(C)nc4C)c(F)c3)ccn12 [Co. No. 33]	7.13
O[C@H]1CC[C@H](Oc2ccc(-c3ccn4c(CC(F)(F)F)nnc4c3Cl)cc2Cl)CC1 [Co. No. 27]	6.80
CCOCc1nnc2c(C(F)(F)F)c(-c3ccc(Oc4cc(C)nc(C)c4)c(F)c3)ccn12 [Co. No. 37]	6.63
Cc1cc(Oc2ccc(-c3ccn4c(CCC5CC5)nnc4c3Cl)cc2F)ccn1 [Co. No. 41]	6.54
Cc1cc(Oc2ccc(-c3ccn4c(CC5CC5)nnc4c3C(F)(F)F)cc2F)cc(C)n1 [Co. No. 38]	7.16
Clc1cc(-c2ccn3c(CC4CC4)nnc3c2Cl)ccc1OC1CCOCC1 [Co. No. 23]	6.53
FC(F)(F)c1c(-c2ccc(NC3CC3)c(Cl)c2)ccn2c(CC3CC3)nnc12 [Co. No. 31]	8.15
O[C@H]1CC[C@@H](Oc2ccc(-c3ccn4c(CC(F)(F)F)nnc4c3Cl)cc2Cl)CC1 [Co. No. 26]	7.01
O[C@H]1CC[C@H](Nc2ccc(-c3ccn4c(CC5CC5)nnc4c3Cl)cc2Cl)CC1 [Co. No. 21]	7.11

Continued, values first:

GTPγS -hR2 PAM pEC50	Structure (SMILES)
7.77	CC(C)Nc1ccc(-c2ccn3c(CC4CC4)nnc3c2C(F)(F)F)cc1Cl [Co. No. 52]
7.98	Cc1ccc(CNc2ccc(-c3ccn4c(CC5CC5)nnc4c3C(F)(F)F)cc2F)cn1 [Co. No. 78]
7.26	CCOCc1nnc2c(C)c(-c3ccc(Oc4ccc(C)nc4C)c(Cl)c3)ccn12 [Co. No. 65]
5.90	FC(F)(F)c1c(-c2ccc(N3CCOCC3)nc2)ccn2c(CC3CC3)nnc12 [Co. No. 68]
8.79	Cc1ccc(Oc2ccc(-c3ccn4c(CC5CC5)nnc4c3C(F)(F)F)cc2Cl)c(C)n1 [Co. No. 53]
7.15	COc1ccc(CNc2ccc(-c3ccn4c(CC5CC5)nnc4c3Cl)cc2)cn1 [Co. No. 59]
7.02	FC(F)(F)c1c(-c2ccc(CN3CCOCC3)c(Cl)c2)ccn2c(CC3CC3)nnc12 [Co. No. 71]
8.00	Cc1ccc(Oc2ccc(-c3ccn4c(CC(F)(F)F)nnc4c3Cl)cc2Cl)c(C)n1 [Co. No. 55]
7.13	CC(C)Nc1ccc(-c2ccn3c(CC4CC4)nnc3c2Cl)cc1Cl [Co. No. 51]
7.70	Cc1ccc(Oc2ccc(-c3ccn4c(CC5CC5)nnc4c3C)cc2Cl)c(C)n1 [Co. No. 61]
5.61	Clc1c(-c2ccc(N3CCOCC3)nc2)ccn2c(CC3CC3)nnc12 [Co. No. 67]
6.65	CC(C)Nc1ccc(-c2ccn3c(CC4CC4)nnc3c2Cl)cc1F [Co. No. 50]
6.67	FC(F)(F)c1c(-c2ccc(N3CCCCC3)nc2)ccn2c(CC3CC3)nnc12 [Co. No. 70]
6.53	Clc1c(-c2ccc(N3CCCCC3)nc2)ccn2c(CC3CC3)nnc12 [Co. No. 69]
6.21	FC(F)(F)c1c(-c2ccc(CNC3CCOCC3)c(Cl)c2)ccn2c(CC3CC3)nnc12 [Co. No. 74]
7.51	CCOCc1nnc2c(C(F)(F)F)c(-c3ccc(Oc4ccc(C)nc4C)c(F)c3)ccn12 [Co. No. 44]
6.51	CC(C)Nc1ccc(-c2ccn3c(CC4CC4)nnc3c2Cl)cn1 [Co. No. 66]
8.79	O[C@]1(C2CC2)CC[C@H](Nc2ccc(-c3ccn4c(CC5CC5)nnc4c3C(F)(F)F)cc2Cl)CC1 [Co. No. 47]
6.49	CC1(O)CCN(Cc2ccc(-c3ccn4c(CC5CC5)nnc4c3C(F)(F)F)cc2Cl)CC1 [Co. No. 72]

Same assay, conditions: in presence of glutamate at predetermined EC20; membranes from CHO cells transfected with human mGluR2; read-out: GTPγS -hR2 PAM pEC50 (converted)

EC50 [nM]	Structure (SMILES)
17	FC(F)(F)c1c(-c2ccc(NC3CCOCC3)c(Cl)c2)ccn2c(CC3CC3)nnc12 [Co. No. 10, 8-Trifluoromethyl-7-[3-chloro-4-(tetrahydro-pyran-4-ylamino)-phenyl]-3-cyclopropylmethyl-[1,2,4]triazolo[4,3-a]pyridine]
22.9	OC1CCC(Nc2ccc(-c3ccn4c(CC5CC5)nnc4c3Cl)cc2Cl)CC1 (single isomer, unassigned) [Co. No. 13-a, 7-[3-Chloro-4-(4-hydroxy-cyclohexylamino)-phenyl]-8-chloro-3-cyclopropylmethyl-[1,2,4]triazolo[4,3-a]pyridine]
41.7	O[C@H]1CC[C@H](Nc2ccc(-c3ccn4c(CC5CC5)nnc4c3Cl)cc2Cl)CC1 [Co. No. 12, 8-Cloro-7-[3-chloro-4-(4-hydroxy-cyclohexylamino)-phenyl]-3-cyclopropylmethyl-[1,2,4]triazolo[4,3-a]pyridine]
60.3	CC(C)Nc1ccc(-c2ccn3c(CC4CC4)nnc3c2C(F)(F)F)cc1F [Co. No. 49, 3-Cyclopropylmethyl-7-[3-fluoro-4-(isopropylamino)-phenyl]-8-trifluoromethyl-[1,2,4]triazolo[4,3-a]pyridine]
36.3	Clc1cc(-c2ccn3c(CC4CC4)nnc3c2Cl)ccc1NC1CC1 [Co. No. 6]
191	Clc1c(-c2ccccc2)ccn2c(CN3CCC(c4ccccc4)CC3)nnc12 [Co. No. 5]
219	CCOCc1nnc2c(C(F)(F)F)c(-c3ccc(Oc4ccnc(C)c4)c(F)c3)ccn12 [Co. No. 36, 3-Ethoxymethyl-7-[3-fluoro-4-(2-methyl-pyridin-4-yloxy)-phenyl]-8-trifluoromethyl-[1,2,4]triazolo[4,3-a]pyridine]
40.7	FC(F)(F)c1c(-c2ccc(OC3CCOCC3)c(Cl)c2)ccn2c(CC3CC3)nnc12 [Co. No. 9, 8-Trifluoromethyl-7-[3-chloro-4-(tetrahydro-pyran-4-yloxy)-phenyl]-3-cyclopropylmethyl-[1,2,4]triazolo[4,3-a]pyridine]

Test system: not given
Assay: not given
Details: not given

melting point [°C]	Structure (SMILES)
198.4	FC(F)(F)c1c(-c2ccc(NC3CCOCC3)c(Cl)c2)ccn2c(CC3CC3)nnc12 [Co. No. 10, 8-Trifluoromethyl-7-[3-chloro-4-(tetrahydro-pyran-4-ylamino)-phenyl]-3-cyclopropylmethyl-[1,2,4]triazolo[4,3-a]pyridine]
273.7	O[C@H]1CC[C@H](Nc2ccc(-c3ccn4c(CC5CC5)nnc4c3Cl)cc2Cl)CC1 [Co. No. 12, 8-Cloro-7-[3-chloro-4-(4-hydroxy-cyclohexylamino)-phenyl]-3-cyclopropylmethyl-[1,2,4]triazolo[4,3-a]pyridine]
156.7	Clc1c(-c2ccc(Oc3ccccc3)cc2)ccn2c(CC3CC3)nnc12 [Co. No. 8, 8-Chloro-3-cyclopropylmethyl-7-(4-phenoxy-phenyl)-1,2,4-triazolo[4,3-a]pyridine]
196.9	CC(C)Nc1ccc(-c2ccn3c(CC4CC4)nnc3c2C(F)(F)F)cc1F [Co. No. 49, 3-Cyclopropylmethyl-7-[3-fluoro-4-(isopropylamino)-phenyl]-8-trifluoromethyl-[1,2,4]triazolo[4,3-a]pyridine]
> 300	Clc1cc(-c2ccn3c(CC4CC4)nnc3c2Cl)ccc1NC1CC1 [Co. No. 6]
171.2	CCOCc1nnc2c(C(F)(F)F)c(-c3ccc(Oc4ccnc(C)c4)c(F)c3)ccn12 [Co. No. 36, 3-Ethoxymethyl-7-[3-fluoro-4-(2-methyl-pyridin-4-yloxy)-phenyl]-8-trifluoromethyl-[1,2,4]triazolo[4,3-a]pyridine]
176.9	FC(F)(F)c1c(-c2ccc(OC3CCOCC3)c(Cl)c2)ccn2c(CC3CC3)nnc12 [Co. No. 9, 8-Trifluoromethyl-7-[3-chloro-4-(tetrahydro-pyran-4-yloxy)-phenyl]-3-cyclopropylmethyl-[1,2,4]triazolo[4,3-a]pyridine]
